In one assay the target is T1, human H1 (Homo sapiens, UniProt P35367).
T1 construct: host or cells: CHO-K1
Description: In vitro histamine receptor cell-based assay (aequorin bioluminescence), H1 antagonism. The settings on record: CHO-K1 cells expressing human H1 and aequorin; histamine at EC80; read-out: H1 Antagonist EC50. As for the experimental part:
(§1) The cell-based assays utilize an aequorin dependent bioluminescence signal. Doubly-transfected, stable CHO-K1 cell lines expressing human H1 or H4, mitochondrion-targeted aequorin, and (H4 only) human G protein Gα16 are obtained from Perkin-Elmer. Cells are maintained in F12 (Ham's) growth medium, containing 10% (vol./vol.) fetal bovine serum, penicillin (100 IU/mL), streptomycin (0.1 mg/mL), zeocin (0.25 mg/mL) and geneticin (0.40 mg/mL). Cell media components are from Invitrogen, Inc. One day prior to assay, the growth medium is replaced with the same, excluding zeocin and geneticin.
(§2) For assay preparation, growth medium is aspirated, and cells are rinsed with calcium-free, magnesium-free phosphate-buffered saline, followed by two to three minute incubation in Versene (Invitrogen, Inc.) at 37° C. Assay medium (DMEM:F12 [50:50], phenol-red free, containing 1 mg/mL protease-free bovine serum albumin) is added to collect the released cells, which are then centrifuged. The cell pellet is re-suspended in assay medium, centrifuged once more, and re-suspended in assay medium to a final density of 5×10^6 cells/mL. Coelenterazine-h dye (500 μM in ethanol) is added to a final concentration of 5 μM, and mixed immediately. The conical tube containing the cells is then wrapped with foil to protect the light-sensitive dye. The cells are incubated for four hours further at room temperature (approximately 21° C.) with end-over-end rotation to keep them in suspension.
(§3) Just before assay, the dye-loaded cells are diluted to 0.75×10^6 cells/mL (H1 receptor) or 1.5×10^6 cells/mL (H4 receptor) with additional assay medium. Cells are dispensed to 1536 well micro-titer plates at 3 μL/well. To assay receptor antagonism, 60 nl of 100× concentration test compounds in 100% dimethyl sulfoxide (DMSO) are dispensed to the wells, one compound per well, by passive pin transfer, and the plates are incubated for 15 minutes at room temperature. Assay plates are then transferred to a Lumilux bioluminescence plate reader (Perkin-Elmer) equipped with an automated 1536 disposable tip pipette. The pipette dispenses 3 μL/well of agonist (histamine, at twice the final concentration, where final concentration is a previously determined EC80) in assay medium, with concurrent bioluminescence detection. […]
(§4) CCD image capture on the Lumilux includes a 5 second baseline read prior to agonist addition, and generally a 40 second read per plate after agonist addition. A decrease in bioluminescence signal (measured either as area-under-the-curve, or maximum signal amplitude minus minimum signal amplitude) correlates with receptor antagonism in a dose dependent manner. […] Efficacy is measured as a percentage of positive control activity.

The target of a further assay is T2, human H4 (Homo sapiens, UniProt Q9H3N8).
T2 construct: host or cells: CHO-K1
Briefly: In vitro histamine receptor cell-based assay (aequorin bioluminescence), H4 antagonism. The settings on record: CHO-K1 cells expressing human H4, aequorin and Gα16; histamine at EC80; read-out: H4 Antagonist EC50. As for the experimental part: as §1, §2, §3, §4

pEC50: −log10 of the molar value.

The term pEC50 denotes −log10 of the EC50, conventionally taken in molar units.

T2 sequence (Q9H3N8 whole entry): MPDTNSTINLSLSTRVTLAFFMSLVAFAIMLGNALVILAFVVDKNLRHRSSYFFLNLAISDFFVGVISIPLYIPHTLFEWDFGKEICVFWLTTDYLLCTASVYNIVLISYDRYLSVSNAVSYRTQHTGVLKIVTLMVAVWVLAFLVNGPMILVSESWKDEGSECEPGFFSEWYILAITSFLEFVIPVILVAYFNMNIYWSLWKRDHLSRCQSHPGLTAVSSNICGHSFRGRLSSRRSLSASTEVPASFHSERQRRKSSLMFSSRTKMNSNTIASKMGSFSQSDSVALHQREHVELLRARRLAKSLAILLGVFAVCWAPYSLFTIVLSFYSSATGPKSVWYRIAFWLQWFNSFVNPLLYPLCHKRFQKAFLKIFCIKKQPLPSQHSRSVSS
T1 sequence (P35367 whole entry): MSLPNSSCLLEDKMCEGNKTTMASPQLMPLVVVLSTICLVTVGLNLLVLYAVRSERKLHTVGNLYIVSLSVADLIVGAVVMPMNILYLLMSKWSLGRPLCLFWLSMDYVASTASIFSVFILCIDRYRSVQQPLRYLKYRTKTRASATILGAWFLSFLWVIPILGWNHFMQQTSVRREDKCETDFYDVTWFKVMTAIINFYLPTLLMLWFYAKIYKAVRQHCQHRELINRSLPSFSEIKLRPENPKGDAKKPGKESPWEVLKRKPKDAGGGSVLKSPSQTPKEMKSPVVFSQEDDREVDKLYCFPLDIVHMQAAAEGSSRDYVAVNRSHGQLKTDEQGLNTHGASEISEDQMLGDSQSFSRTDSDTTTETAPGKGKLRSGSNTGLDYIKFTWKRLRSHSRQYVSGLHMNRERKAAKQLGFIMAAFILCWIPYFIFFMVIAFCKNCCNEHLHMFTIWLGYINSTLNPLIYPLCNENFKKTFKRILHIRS

As for `Cc1nc2c3cc(Cl)sc3nc(N3CCN(C)CC3)n2n1` [Example 1, 8-chloro-2-methyl-5-(4-methylpiperazin-1-yl)thieno[3,2-e][1,2,4]triazolo[1,5-c]pyrimidine], the pEC50 on human H1 is less than 5.00; on human H4, not below 5.00.
As to `Cc1nc2c3cc(Cl)sc3nc(N3CCNCC3)n2n1` [Example 2, 8-chloro-2-methyl-5-(piperazin-1-yl)thieno[3,2-e][1,2,4]-triazolo[1,5-c]pyrimidine], the pEC50 is less than 5.00 at human H1 and not below 5.00 at human H4.
Turning to `Cc1nc2c3sc(Cl)cc3nc(N3CCN(C)CC3)n2n1` [Example 3, 8-chloro-2-methyl-5-(4-methylpiperazin-1-yl)thieno[2,3-e][1,2,4]triazolo[1,5-c]pyrimidine], the pEC50 at human H1 is less than 5.00; on human H4 it was not below 5.00.
For `Cc1nc2c3sc(Cl)cc3nc(N3CCNCC3)n2n1` [Example 4, 8-chloro-2-methyl-5-(piperazin-1-yl)thieno[2,3-e][1,2,4]triazolo[1,5-c]pyrimidine], in that order: less than 5.00 and less than 5.00.

The values are drawn from US20110237599A1, “HETEROCYCLIC INHIBITORS OF HISTAMINE RECEPTORS FOR THE TREATMENT OF DISEASE” (Kalypsys, Inc., priority 2010, published 2011).
